Assay [1] concerns Kunming mice. To be noted: mouse, in vivo.
The test system of assay [2] is Kunming mice. It is filed as in vivo. To be noted: mouse, in vivo.
A further assay deals with Female Kunming mice. It is filed as in vivo. To be noted: mouse, in vivo, ip.

Where “and” joins values, the source holds several entries; their conditions need not be identical. Equal values may be shown once. No end group written: not given here.

As to “GCCSTPPCAVLYC (cysteine pairing not given here) [Conotoxin, reference compound]”, in the assay with Kunming mice [1], the “cumulative foot licking time, Phase I” value stood at 50.38 ± 9.38 and the “cumulative foot licking time, Phase II” value is 53.64 ± 15.32. Also, the “Pain threshold (tail flick)” value in the assay on Kunming mice [2] was 2.23 ± 0.18 s and 2.32 ± 0.28 s and 2.21 ± 0.12 s and 2.31 ± 0.18 s and 2.12 ± 0.12 s and 2.63 ± 0.12 s. In the assay with Female Kunming mice, the Pain threshold is 27.29 ± 0.48 s and 29.32 ± 0.18 s and 24.1 ± 0.28 s and 30.39 ± 0.28 s and 27.39 ± 0.28 s and 26.21 ± 0.38 s and 24.63 ± 0.12 s.

Values taken from patent US11192921B2 (priority 2017, dated 2021).
